For ten compounds, IC50 and selectivity ratio results are on record in ChEMBL document CHEMBL5096178, “Synthesis and Biological Evaluation of Natural-Product-Inspired, Aminoalkyl-Substituted 1-Benzopyrans as Novel Antiplasmodial Agents” (J Med Chem, 2021).

Usually IC50 stands for the midpoint of a concentration-inhibition curve.

Data set [1] relates to Trypanosoma brucei rhodesiense. In words: Antiprotozoal activity against Trypanosoma brucei rhodesiense STIB 900 bloodstream trypomastigote assessed as parasite growth inhibition incubated for 70 hrs by resazurin dye based assay. The data set is classed as functional, organism-based. The conditions noted are these: STIB 900, 70 h. For orientation: Resazurin is reduced to fluorescent resorufin, in cell work by metabolically active cells.

Data set [2] can be described thus: Selectivity index, ratio of IC50 for rat L6 cells to IC50 for erythrocytic stage Plasmodium falciparum NF54. The data set is classed as toxicity. The conditions noted are these: read-out: Ratio IC50.
The subject of a further data set is Leishmania donovani. In words: Antiprotozoal activity against Leishmania donovani MHOM/ET/67/L82 axenic amastigote assessed as parasite growth inhibition incubated for resazurin dye based fluorometry. The class given is functional, organism-based.
A short description of data set [3]: Selectivity index, ratio of IC50 for rat L6 cells to IC50 for Trypanosoma brucei rhodesiense STIB 900 bloodstream trypomastigote. The data set is classed as toxicity. Particulars: read-out: Ratio IC50.
The subject of a further data set is Trypanosoma cruzi. In words: Antiprotozoal activity against Trypanosoma cruzi Tulahuen C4 intracellular amastigote infected in rat L6 cells assessed as parasite growth inhibition incubated for 96 hrs in presence of CPRG/Nonidet by photometry. The class given is functional, organism-based. The conditions noted are these: Tulahuen C4, L6, 96 h.
Data set [4] is described as follows: Selectivity index, ratio of IC50 for rat L6 cells to IC50 for Trypanosoma cruzi Tulahuen C4 intracellular amastigote infected in rat L6 cells. The data set is classed as toxicity, cell-based. The conditions noted are these: read-out: Ratio IC50.
Data set [5] is described as follows: Cytotoxicity against rat L6 cells assessed as cell growth inhibition incubated for 70 hrs by Alamar Blue staining based […]. The data set is classed as toxicity.
Data set [6] is described as follows: Selectivity index, ratio of IC50 for rat L6 cells to IC50 for Leishmania donovani MHOM/ET/67/L82 axenic amastigote. Particulars: read-out: Ratio IC50. The data set is classed as toxicity.
The next data set deals with Plasmodium falciparum. In words: Antiprotozoal activity against erythrocytic stage Plasmodium falciparum NF54 assessed as parasite growth inhibition incubated for 48 hrs by [3H]hypoxanthine incorporation assay. The class given is functional, organism-based.

In the case of `CC1(C)CCc2c(ccc(CNCCCc3ccccc3)c2O)O1`, the concentration for half-maximal inhibition (IC50) in [1] amounted to 3.4 µM; in the data set with Leishmania donovani it was 52 µM; in the data set on Trypanosoma cruzi, 31 µM; in the data set with Plasmodium falciparum, 0.15 µM. Moreover, the selectivity ratio in [2] was 180; in [3], 8; in [4], 0.9; in data set [6], 0.5. Besides, the IC50 at 70 h in [5] was 27 µM.

As to `CC1(C)C=Cc2cc(CNCCc3ccccc3)c(O)cc2O1`, the IC50 in [1] came to 0.67 µM; in the data set on Leishmania donovani, 105 µM; with Trypanosoma cruzi, 28 µM; with Plasmodium falciparum, 0.076 µM. Also, the selectivity ratio was determined as 605 in data set [2], 69 in [3], 2 in data set [4] and 0.4 in data set [6]. The IC50 at 70 h in data set [5] stood at 46 µM.

As to `CC1(C)CCc2cc(CNCCc3ccccc3)c3c(c2O1)CCC(C)(C)O3`, the IC50 is 0.7 µM in data set [1], 12 µM in the data set with Leishmania donovani, 9.1 µM in the data set on Trypanosoma cruzi and 0.24 µM in the data set on Plasmodium falciparum. For the same compound, the selectivity ratio in data set [2] is 15; in data set [3], 5; in [4], 0.4; in data set [6], 0.3. The half-maximal inhibitory concentration (IC50) at 70 h in data set [5] amounted to 3.5 µM.

Turning to `CC1(C)C=Cc2cc(CNCCCc3ccccc3)c(O)cc2O1`, the concentration for half-maximal inhibition (IC50) in [1] was 1.01 µM; with Leishmania donovani it was 43 µM; in the data set with Trypanosoma cruzi, 28 µM; with Plasmodium falciparum, 0.081 µM. The selectivity ratio was 346 in data set [2], 28 in [3], 1 in data set [4] and 0.7 in data set [6]. Moreover, the half-inhibitory concentration (IC50) at 70 h in data set [5] was 28 µM.

Turning to `CC1(C)CCc2cc(C(O)CNCc3ccccc3)c(O)cc2O1` (stereo not drawn), the IC50 worked out at 6.4 µM in data set [1], 54 µM with Leishmania donovani, 48 µM with Trypanosoma cruzi and 0.1 µM with Plasmodium falciparum. In addition, the selectivity ratio is 460 in data set [2], 7 in data set [3], 1 in [4] and 0.9 in [6]. The half-inhibitory concentration (IC50) at 70 h in data set [5] is 46 µM.

As for `CC1(C)CCc2cc(CNCCc3ccccc3)c(O)cc2O1`, the selectivity ratio in data set [2] came to 531. Also, the half-maximal inhibitory concentration (IC50) at 70 h in data set [5] turned out to be 43 µM. Also, the concentration for half-maximal inhibition (IC50) with Plasmodium falciparum was 0.081 µM.

In the case of `CC1(C)CCc2cc(CNCc3ccccc3)c(O)cc2O1`, in data set [2], the selectivity ratio was found to be 222. Also, the IC50 at 70 h in data set [5] is 22 µM. In the data set with Plasmodium falciparum, the IC50 stood at 0.099 µM.

In the case of `CC1(C)CCc2c(ccc(CNCCCCc3ccccc3)c2O)O1`, the IC50 in data set [1] came to 3.4 µM; in the data set on Leishmania donovani, 42 µM; with Trypanosoma cruzi it was 18 µM; in the data set on Plasmodium falciparum, 0.18 µM. Moreover, the selectivity ratio came to 83 in [2], 4 in data set [3], 0.8 in data set [4] and 0.4 in data set [6]. In addition, in [5], the IC50 at 70 h was found to be 15 µM.

As to `CC1(C)CCc2cc(CNCCCCc3ccccc3)c3c(c2O1)CCC(C)(C)O3`, the IC50 in data set [1] is 0.54 µM; with Leishmania donovani it was 4.9 µM; with Trypanosoma cruzi it was 5.4 µM; in the data set on Plasmodium falciparum it was 0.21 µM. Moreover, the selectivity ratio was found to be 15 in data set [2], 6 in data set [3], 0.6 in data set [4] and 0.7 in data set [6]. Also, in data set [5], the IC50 at 70 h came to 3.2 µM.

With `CC1(C)CCc2cc(CNCCCCc3ccccc3)c(O)cc2O1`, the IC50 in data set [1] stood at 0.46 µM; in the data set on Leishmania donovani, 138 µM; in the data set on Trypanosoma cruzi, 13 µM; with Plasmodium falciparum, 0.07 µM. Besides, the selectivity ratio came to 214 in data set [2], 33 in data set [3], 1 in [4] and 0.1 in [6]. Moreover, in data set [5], the IC50 at 70 h was determined as 15 µM.
